Where a SMILES comes first, the peptide text is derived from it. [ ]: non-standard residue; d: D form. The star is where a group is joined. Phe(4-guanidino) = N=C(N)Nc1ccc(C[C@H](N)C(=O)O)cc1; Phe(4-F) = N[C@@H](Cc1ccc(F)cc1)C(=O)O; Orn = NCCC[C@H](N)C(=O)O; X1 = O=C(/C=C/c1ccccc1)*; Propionyl = CCC(=O)*
Species on record: Homo sapiens
Assay: Inhibitory concentration against TRAP-stimulated secretion of 3H serotonin from human platelets
Type: functional

SMILES | IC50 [nM]
CC(C)(C)C(=O)NCc1ccc(NC(=O)N2CCC[C@@H]2[C@@H](O)c2ccc(Cl)c(Cl)c2)cc1 | > 10000
CC(C)(C)C(=O)NCc1ccc(NC(=O)N2CCC[C@H]2[C@H](O)c2ccc(Cl)c(Cl)c2)cc1 | > 10000
CC(C)(C)C(=O)NCc1ccc(NC(=O)N(CC(O)c2cccc(Cl)c2Cl)C2CCC2)cc1 (stereo not given) | > 10000
CC(C)N(C[C@@H](O)c1ccc(Cl)c(Cl)c1)C(=O)Nc1ccc(CNC(=O)C(C)(C)C)cc1 | 700
CC(C)(C)C(=O)NCc1ccc(NC(=O)N(CC(O)c2ccc(C#N)cc2)C2CCC2)cc1 (stereo not given) | 6000
CC(C)N(C[C@@H](O)c1ccc(Cl)c(Cl)c1)C(=O)Nc1ccc(NC(=O)c2ccc(F)cc2F)cc1 | > 10000
CC(C)N(C[C@@H](O)c1ccc(Cl)c(Cl)c1)C(=O)Nc1ccc(NC(=O)C(C)(C)C)cc1 | > 10000
C[C@@H]1CC[C@@H]([C@@H](O)c2ccc(Cl)c(Cl)c2)N1C(=O)Nc1ccc(CNC(=O)C(C)(C)C)cc1 | > 10000
CC(C)(C)C(=O)NCc1ccc(NC(=O)N(CC(O)c2ccc(F)c(F)c2)C2CCC2)cc1 (stereo not given) | 10000
CC(C)(C)C(=O)NCc1ccc(NC(=O)N2CCCC[C@H]2[C@H](O)c2ccc(Cl)c(Cl)c2)cc1 | > 10000
CCCN(C[C@@H](O)c1ccc(Cl)c(Cl)c1)C(=O)Nc1ccc(CNC(=O)C(C)(C)C)cc1 | 1100
CC(C)(C)C(=O)NCc1ccc(NC(=O)NC[C@@H](O)c2ccc(Cl)c(Cl)c2)cc1 | > 40000
CC(C)N(C[C@@H](O)c1ccc(Cl)c(Cl)c1)C(=O)Nc1ccc(CCNC(=O)c2ccc(S(N)(=O)=O)cc2)cc1 | 700
CC(C)N(C[C@@H](O)c1ccc(Cl)c(Cl)c1)C(=O)Nc1ccc(CNC(=O)C(C)(C)N)cc1 | 1000
CC(C)(C)C(=O)NCc1ccc(NC(=O)N2C[S+]([O-])C[C@@H]2[C@@H](O)c2ccc(Cl)c(Cl)c2)cc1 (stereo not given in full) | > 10000
CC(C)(C)C(=O)NCc1ccc(NC(=O)N2CCC[C@@H]2[C@H](O)c2ccc(Cl)c(Cl)c2)cc1 | > 10000
CC(C)(C)C(=O)NCc1ccc(NC(=O)N(CC(O)c2ccc(Cl)cc2Cl)C2CCC2)cc1 (stereo not given) | 10000
CC(C)(C)C(=O)NCc1ccc(NC(=O)N(C[C@@H](O)c2ccc(Cl)c(Cl)c2)C2CC2)cc1 | 6700
CC(C)N(C[C@@H](O)c1ccc(Cl)c(Cl)c1)C(=O)Nc1ccc(CNC(=O)c2cccnc2)cc1 | 700

SMILES | IC50 [nM]
CCCCN(C[C@@H](O)c1ccc(Cl)c(Cl)c1)C(=O)Nc1ccc(CNC(=O)C(C)(C)C)cc1 | > 10000
CC(C)(C)C(=O)NCc1ccc(NC(=O)N(CC(O)c2ccc(Br)c(Br)c2)C2CCC2)cc1 (stereo not given) | 1000
O=C1N(C[C@@H](O)c2ccc(Cl)c(Cl)c2)CCN1c1ccccc1 | > 100000
CC(C)N(C[C@@H](O)c1ccc(Cl)c(Cl)c1)C(=O)Nc1ccc(CNC(=O)Nc2ccc(CNC(N)=O)cc2)cc1 | 600
CC(C)N(C[C@@H](O)c1ccc(Cl)c(Cl)c1)C(=O)Nc1ccc(NC(=O)c2ccc(S(N)(=O)=O)cc2)cc1 | 1000
CCN(C[C@@H](O)c1ccc(Cl)c(Cl)c1)C(=O)Nc1ccc(CNC(=O)C(C)(C)C)cc1 | 3800
CC[C@H](C)N(C[C@@H](O)c1ccc(Cl)c(Cl)c1)C(=O)Nc1ccc(CNC(=O)C(C)(C)C)cc1 | 400
CC(C)CN(C[C@@H](O)c1ccc(Cl)c(Cl)c1)C(=O)Nc1ccc(CNC(=O)C(C)(C)C)cc1 | > 10000
CC(C)N(C[C@@H](O)c1ccc(Cl)c(Cl)c1)C(=O)Nc1ccc(CNC(=O)c2ccc(S(N)(=O)=O)cc2)cc1 | 850
CC[C@@H](C)N(C[C@@H](O)c1ccc(Cl)c(Cl)c1)C(=O)Nc1ccc(CNC(=O)C(C)(C)C)cc1 | 230
Cc1ccc(C(O)CN(C(=O)Nc2ccc(CNC(=O)C(C)(C)C)cc2)C2CCC2)cc1C (stereo not given) | > 10000
CC(C)(C)C(=O)NCc1ccc(NC(=O)N(CC(O)c2ccc(Cl)c(Cl)c2)C2CCC2)cc1 (stereo not given) | 230
CN(C[C@@H](O)c1ccc(Cl)c(Cl)c1)C(=O)Nc1ccc(CNC(=O)C(C)(C)C)cc1 | 40000
CC(C)(C)C(=O)NCc1ccc(NC(=O)N(C[C@@H](O)c2ccc(Cl)c(Cl)c2)c2ccccc2)cc1 | > 10000
CC(C)N(C[C@@H](O)c1ccc(Cl)c(Cl)c1)C(=O)Nc1ccc(CCNC(=O)C(C)(C)C)cc1 | > 10000
CCCC(C)N(C[C@@H](O)c1ccc(Cl)c(Cl)c1)C(=O)Nc1ccc(CNC(=O)C(C)(C)C)cc1 (stereo not given in full) | 1000
CC(C)N(C[C@@H](O)c1ccc(Cl)c(Cl)c1)C(=O)Nc1ccc(NC(=O)c2cccc3[nH]cnc23)cc1 | 1000
CC(C)(C)C(=O)NCc1ccc(NC(=O)N(C[C@@H](O)c2ccc(Cl)c(Cl)c2)C(C)(C)C)cc1 | 1700
CC(C)(C)C(=O)NCc1ccc(NC(=O)N2CCCC(O)(c3ccc(Cl)c(Cl)c3)C2)cc1 (stereo not given) | 500

SMILES | IC50 [nM]
CC(C)N1CC(c2ccc(Cl)c(Cl)c2)CN(c2ccc(CNC(=O)C(C)(C)C)cc2)C1=O (stereo not given) | > 10000
CC(C)(C)C(=O)NCc1ccc(NC(=O)N2CSC[C@@H]2[C@@H](O)c2ccc(Cl)c(Cl)c2)cc1 | 2500
CC(C)(C)C(=O)NCc1ccc(NC(=O)N2CCC[C@H]2[C@@H](O)c2ccc(Cl)c(Cl)c2)cc1 | 1500
CC(C)N(C[C@@H](O)c1ccc(Cl)c(Cl)c1)C(=O)Nc1ccc(CCNC(=O)c2cccnc2)cc1 | 1400
CC(C)N(C[C@@H](O)c1ccc(Cl)c(Cl)c1)C(=O)Nc1ccc(CNC(=O)c2cccc3[nH]cnc23)cc1 | 450
CC(C)(C)C(=O)NCc1ccc(NC(=O)N(C[C@@H](O)c2ccc(Cl)c(Cl)c2)C2CCCC2)cc1 | > 10000
CC(C)N(C[C@@H](O)c1ccc(Cl)c(Cl)c1)C(=O)Nc1ccc(CCNC(=O)c2ccc(F)cc2F)cc1 | > 10000
CC(C)N(C[C@@H](O)c1ccc(Cl)c(Cl)c1)C(=O)Nc1ccc(CNC(=O)c2ccc(F)cc2F)cc1 | 900
C[C@H]1CC[C@@H]([C@@H](O)c2ccc(Cl)c(Cl)c2)N1C(=O)Nc1ccc(CNC(=O)C(C)(C)C)cc1 | 400
CC(C)N(C[C@@H](O)c1ccc(Cl)c(Cl)c1)C(=O)Nc1ccc(CCNC(=O)c2cccc3[nH]cnc23)cc1 | 360
CC(C)(C)C(=O)NCc1ccc(NC(=O)N2CCCC[C@H]2[C@@H](O)c2ccc(Cl)c(Cl)c2)cc1 | 4300
CC(C)(C)C(=O)NCc1ccc(NC(=O)N2CCOC(c3ccc(Cl)c(Cl)c3)C2)cc1 (stereo not given) | > 40000
CC(C)(C)C(=O)NCc1ccc(NC(=O)N(CC(O)c2cc(Cl)cc(Cl)c2)C2CCC2)cc1 (stereo not given) | > 10000
CC[C@H]1CC[C@@H]([C@@H](O)c2ccc(Cl)c(Cl)c2)N1C(=O)Nc1ccc(CNC(=O)C(C)(C)C)cc1 | 700
CC(C)(C)C(=O)NCc1ccc(NC(=O)N2CCC(O)(c3ccc(Cl)c(Cl)c3)C2)cc1 (stereo not given) | > 40000
CC(C)(C)C(=O)NCc1ccc(NC(=O)N(CC(O)c2cccc(C#N)c2)C2CCC2)cc1 (stereo not given) | > 10000
CCC(=O)NCCC[C@H](NC(=O)[C@H](CCCN=C(N)N)NC(=O)[C@H](CC(C)C)NC(=O)[C@H](Cc1ccc(NC(=N)N)cc1)NC(=O)[C@H](Cc1ccc(F)cc1)NC(=O)/C=C/c1ccccc1)C(N)=O (X1-[Phe(4-F)][Phe(4-guanidino)]LR[Orn](Propionyl)-NH2) | 120
CC(C)C[C@H](NC(=O)[C@H](Cc1ccc(NC(=N)N)cc1)NC(=O)[C@H](Cc1ccc(F)cc1)NC(=O)/C=C/c1ccccc1)C(=O)N[C@@H](CCCN=C(N)N)C(=O)N[C@@H](CCCN)C(N)=O (X1-[Phe(4-F)][Phe(4-guanidino)]LR[Orn]-NH2) | 54

Molecular target: T1, Proteinase-activated receptor 1 (Homo sapiens, UniProt P25116)
T1 sequence (P25116 whole entry): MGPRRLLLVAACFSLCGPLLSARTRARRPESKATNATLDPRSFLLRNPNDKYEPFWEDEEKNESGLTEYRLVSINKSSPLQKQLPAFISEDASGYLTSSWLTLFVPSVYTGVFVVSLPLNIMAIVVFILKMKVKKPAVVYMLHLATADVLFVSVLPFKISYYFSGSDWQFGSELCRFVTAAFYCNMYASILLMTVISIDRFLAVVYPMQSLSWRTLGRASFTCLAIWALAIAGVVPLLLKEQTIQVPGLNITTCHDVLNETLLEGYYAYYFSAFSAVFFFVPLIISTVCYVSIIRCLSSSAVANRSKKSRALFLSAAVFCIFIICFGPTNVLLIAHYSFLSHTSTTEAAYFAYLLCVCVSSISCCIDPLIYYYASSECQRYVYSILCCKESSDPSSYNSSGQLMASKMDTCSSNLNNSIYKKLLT
Assay: Binding affinity against platelet thrombin receptor

SMILES | IC50 [nM]
CC(C)N(C[C@@H](O)c1ccc(Cl)c(Cl)c1)C(=O)Nc1ccc(CNC(=O)C(C)(C)C)cc1 | 700
CC(C)(C)C(=O)NCc1ccc(NC(=O)N(C[C@@H](O)c2ccc(Cl)c(Cl)c2)C2CC2)cc1 | 2100
CC(C)N(C[C@@H](O)c1ccc(Cl)c(Cl)c1)C(=O)Nc1ccc(CNC(=O)c2ccc(S(N)(=O)=O)cc2)cc1 | 1200
CC[C@@H](C)N(C[C@@H](O)c1ccc(Cl)c(Cl)c1)C(=O)Nc1ccc(CNC(=O)C(C)(C)C)cc1 | 120
CN(C[C@@H](O)c1ccc(Cl)c(Cl)c1)C(=O)Nc1ccc(CNC(=O)C(C)(C)C)cc1 | 6600
CC(C)(C)C(=O)NCc1ccc(NC(=O)N2CCC[C@H]2[C@@H](O)c2ccc(Cl)c(Cl)c2)cc1 | 1100
C[C@H]1CC[C@@H]([C@@H](O)c2ccc(Cl)c(Cl)c2)N1C(=O)Nc1ccc(CNC(=O)C(C)(C)C)cc1 | 1000

Test system: not listed separately
Assay: Inhibitory activity against ADP or collagen induced platelet activation
Type: functional

SMILES | IC50 [nM]
CC[C@@H](C)N(C[C@@H](O)c1ccc(Cl)c(Cl)c1)C(=O)Nc1ccc(CNC(=O)C(C)(C)C)cc1 | > 10000

Molecular target: not listed separately
Assay: Inhibitory activity against thrombin's catalytic activity was determined
Type: functional

SMILES | Ki [nM]
CC[C@@H](C)N(C[C@@H](O)c1ccc(Cl)c(Cl)c1)C(=O)Nc1ccc(CNC(=O)C(C)(C)C)cc1 | > 10000
